Test results as given in publication PMC11048033, “Dual Anti-Inflammatory and Anticancer Activity of Novel 1,5-Diaryl Pyrazole Derivatives: Molecular Modeling, Synthesis, In Vitro Activity, and Dynamics Study” (Biomedicines, 2024).

Assays:
[1] = molecular target: BSA (bovine albumin serum) (Bos taurus, UniProt P02769); test: Protein (albumin) denaturation assay; settings: maximum inhibition; compounds tested at 50-200 µg/mL, diclofenac 100 µg/mL
Protocol: Mizushima and Kobayashi’s technique was employed for the determination of in vitro anti-inflammatory activity by the protein denaturation method for the synthesized compounds. […] Then, a mixture of 500µL of 1% aqueous solution of BSA (bovine albumin serum) and 1.4 mL of phosphate buffer saline (PBS, pH 7.4) was added to 100 µL of varying concentrations of the synthesized compounds 50, 100, and 200 µg/mL. […] The mixtures are then incubated for 15 min at 37 °C and then heated for 10 min at 60 °C. The absorbance was measured at 660nm (SHIMADZU, UV-1800 Spectrophotometer) upon cooling. […] The entire experiment was done in triplicate, and the average was calculated. % inhibition of protein denaturation was calculated by: % inhibition=Absorbance of Control−Absorbance of Sample/Absorbance of Control×100
The anti-inflammatory capacity of the target compound was evaluated using the protein denaturation assay.

Human COX-2 = molecular target: T1, Human COX-2 (Homo sapiens, UniProt P35354); test: In vitro COX-2 enzymatic assay (Cayman COX (human) Inhibitor Screening Assay Kit); format: biochemical
T1 construct: purchased Cayman Chemicals 701230
T1 sequence (P35354 18-604): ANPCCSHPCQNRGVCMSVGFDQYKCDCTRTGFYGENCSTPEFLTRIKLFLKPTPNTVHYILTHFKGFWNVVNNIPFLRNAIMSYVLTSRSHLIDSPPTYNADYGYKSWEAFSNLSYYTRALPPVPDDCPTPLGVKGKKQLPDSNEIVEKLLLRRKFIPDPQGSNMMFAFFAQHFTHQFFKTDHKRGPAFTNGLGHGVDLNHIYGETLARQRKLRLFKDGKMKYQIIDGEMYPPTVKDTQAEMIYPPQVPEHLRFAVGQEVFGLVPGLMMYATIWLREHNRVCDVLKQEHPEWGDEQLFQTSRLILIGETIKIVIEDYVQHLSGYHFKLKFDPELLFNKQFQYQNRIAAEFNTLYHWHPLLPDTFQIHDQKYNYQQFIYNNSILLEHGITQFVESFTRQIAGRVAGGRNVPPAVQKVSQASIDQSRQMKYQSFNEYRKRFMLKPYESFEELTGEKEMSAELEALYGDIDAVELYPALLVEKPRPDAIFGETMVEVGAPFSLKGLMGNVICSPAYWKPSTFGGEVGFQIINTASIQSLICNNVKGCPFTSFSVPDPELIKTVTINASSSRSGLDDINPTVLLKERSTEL
Protocol: The ability of the compounds to inhibit COX -2 (IC50 values, µM) was determined by using a “COX (human) Inhibitor Screening Assay Kit” procured from Cayman Chemicals (catalog number 701230). With a slight modification in the method as defined in the reference, the COX-2 inhibition assay was performed. Using the percent conversion of arachidonic acid (AA) to PGH2, the enzyme activity was calculated. By enzyme immunoassay PGF2α, which is produced from PGH2 by reduction with stannous chloride, is calculated. The test compounds’ stock solutions are prepared by dissolving in a minimum amount of DMSO. Human COX-2 (10 µL) in the presence of 10 µL of heme was suspended in 0.1M Tris-HCl buffer (pH 8.0) which contains 2 mM phenol and 5 mM EDTA. This was added to various concentrations of test compounds and, on incubating the solutions at 37 °C for 5 min, 10 µL of AA solution were added. Later, the COX reaction was stopped by adding 1M HCl (50 µL) after 2 min. The intensity of the yellow color which is produced as the product of the enzymatic reaction is determined spectrophotometrically. The percent inhibition was calculated by comparing the compound treated to different control incubations. […] The determinations are done in triplicate and the IC50 (µM) was determined using the concentration–inhibition response curve.
During the initiation of the inflammatory process, the COX enzyme plays a vital role in the progression of inflammatory response. The inflammatory mediators that arise due to the action of COX lead to the chemoattraction of neutrophils, macrophages, eosinophils, etc. […] This was carried out with the help of a COX (human) inhibitor screening assay kit (Item no. 701230) from Cayman chemicals. […] A test substance concentration was considered to be inhibitive when it inhibited human COX-1 or COX-2 by 50%. The compound’s selectivity was measured by its selectivity index values, derived as IC50 (COX-1)/IC50 (COX-2).

Sequence of BSA (bovine albumin serum) (P02769 25-607): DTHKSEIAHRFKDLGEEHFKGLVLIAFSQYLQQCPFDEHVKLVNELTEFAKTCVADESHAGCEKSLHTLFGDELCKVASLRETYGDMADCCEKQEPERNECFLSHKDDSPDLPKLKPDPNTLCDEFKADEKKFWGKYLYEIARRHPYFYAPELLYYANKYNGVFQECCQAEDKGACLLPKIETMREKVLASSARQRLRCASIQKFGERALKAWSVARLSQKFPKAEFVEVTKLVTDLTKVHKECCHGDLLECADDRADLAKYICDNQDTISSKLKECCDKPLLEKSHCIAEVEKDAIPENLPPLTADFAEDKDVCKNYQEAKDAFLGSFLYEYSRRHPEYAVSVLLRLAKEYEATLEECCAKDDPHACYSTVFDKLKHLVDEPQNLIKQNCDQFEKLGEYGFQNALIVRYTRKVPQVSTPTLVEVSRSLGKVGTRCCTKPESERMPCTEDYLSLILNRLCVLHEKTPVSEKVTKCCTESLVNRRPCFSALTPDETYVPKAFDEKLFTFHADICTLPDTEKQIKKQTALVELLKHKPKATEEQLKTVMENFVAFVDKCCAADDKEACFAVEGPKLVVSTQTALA

Cc1cc(C=NNC(=O)c2cc(-c3ccc(Br)cc3)n(-c3ccc(S(N)(=O)=O)cc3)n2)cc(C)c1OCc1ccccc1 [Compound T5, 4-(3-(2-(4-(benzyloxy)-3,5-dimethylbenzylidene) hydrazine-1-carbonyl)-5-(4-bromophenyl)-1H-pyrazol-1-yl) benzenesulfonamide]
% inhibition of albumin denaturation [1]: 70.87% | Selectivity Index (Human COX-2): 7.16 | % COX-2 Inhibition (Human COX-2; 0.781 μg/ml): 65.66 ± 1.05% | % COX-2 Inhibition (Human COX-2; 1.562 μg/ml): 72.1 ± 6.01% | % COX-2 Inhibition (Human COX-2; 3.125 μg/ml): 78.03 ± 2.98% | % COX-2 Inhibition (Human COX-2; 6.25 μg/ml): 84.28 ± 2.50% | % COX-2 Inhibition (Human COX-2; 12.5 μg/ml): 85.04 ± 2.38% | % COX-2 Inhibition (Human COX-2; 25 μg/ml): 86.71 ± 0.50% | % COX-2 Inhibition (Human COX-2; 50 μg/ml): 87.64 ± 1.43% | % COX-2 Inhibition (Human COX-2; 100 μg/ml): 88.64 ± 0.86% | % COX-2 Inhibition (Human COX-2; 250 μg/ml): 89.35 ± 0.86%

NS(=O)(=O)c1ccc(-n2nc(C(=O)NN=Cc3cccc(Oc4ccccc4)c3)cc2-c2ccc(Cl)cc2)cc1 [Compound T3, 4-(5-(4-chlorophenyl)-3-(2-(3-phenoxybenzylidene) hydrazine-1-carbonyl)-1H-pyrazol-1-yl) benzenesulfonamide]
% inhibition of albumin denaturation [1]: 63.32% | % COX-2 Inhibition (Human COX-2; 0.781 μg/ml): 55.34 ± 1.03% | % COX-2 Inhibition (Human COX-2; 1.562 μg/ml): 61.82 ± 1.20% | % COX-2 Inhibition (Human COX-2; 3.125 μg/ml): 66.67 ± 0.96% | % COX-2 Inhibition (Human COX-2; 6.25 μg/ml): 71.48 ± 0.78% | % COX-2 Inhibition (Human COX-2; 12.5 μg/ml): 73.95 ± 0.27% | % COX-2 Inhibition (Human COX-2; 25 μg/ml): 76.28 ± 0.70% | % COX-2 Inhibition (Human COX-2; 50 μg/ml): 78.94 ± 0.72% | % COX-2 Inhibition (Human COX-2; 100 μg/ml): 81.06 ± 0.47% | % COX-2 Inhibition (Human COX-2; 250 μg/ml): 85.38 ± 0.73%
